According to PubChem BioAssay AID248 (DTP/NCI, 2004):
Values joined by “and” are separate entries in the source; they are usually repeats but may differ in a detail not shown here. Equal values may be shown once. Inconclusive results and toxic doses are left out.

Tested on: L1210 leukemia ip in BDF1 mice, survival T/C
Assay: NCI In Vivo Anticancer Drug Screen. Data for tumor model L1210 Leukemia (intraperitoneal) in B6D2F1 (BDF1) mice
Conditions: higher = longer survival
Procedure, shortened: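 Transplanted-tumor mice were given test agent; controls received vehicle only. Survival readings from the two groups were divided (treated over control).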

## CC1CCC(NC(=O)N(CCCl)N=O)CC1 (stereo unspecified)
endpoint: mean survival time, dose: 0.1 mg/kg/injection, schedule: Q01DX001 (ip), vehicle: clinical formulation
  T/C: 211 % of control
endpoint: mean survival time, dose: 0.2 mg/kg/injection, schedule: Q01DX001 (ip), vehicle: clinical formulation
  T/C: 119 % of control
endpoint: mean survival time, dose: 0.4 mg/kg/injection, schedule: Q01DX001 (ip), vehicle: clinical formulation
  T/C: 223 % of control
endpoint: mean survival time, dose: 0.45 mg/kg/injection, schedule: Q01DX009 (ip), vehicle: saline with Tween-80
  T/C: 99 % of control and 103 % of control
endpoint: mean survival time, dose: 0.9 mg/kg/injection, schedule: Q01DX009 (ip), vehicle: saline with Tween-80
  T/C: 106 % of control and 118 % of control
endpoint: mean survival time, dose: 1.0 mg/kg/injection, schedule: Q01DX001 (ip), vehicle: other
  T/C: 112 % of control
endpoint: mean survival time, dose: 1.0 mg/kg/injection, schedule: Q04DX002 (ip), vehicle: saline with Tween-80
  T/C: 95 % of control and 100 % of control
endpoint: mean survival time, dose: 2.0 mg/kg/injection, schedule: Q01DX001 (ip), vehicle: other
  T/C: 118 % of control
endpoint: mean survival time, dose: 2.0 mg/kg/injection, schedule: Q01DX009 (ip), vehicle: saline
  T/C: 98 % of control
endpoint: mean survival time, dose: 2.0 mg/kg/injection, schedule: Q04DX002 (ip), vehicle: saline with Tween-80
  T/C: 101 % of control and 120 % of control
endpoint: mean survival time, dose: 2.5 mg/kg/injection, schedule: Q01DX Z (ip), vehicle: Klucel (hydroxypropylcellulose) (HPC)
  T/C: 115 % of control
endpoint: mean survival time, dose: 3.1 mg/kg/injection, schedule: Q07DX003 (ip), vehicle: Klucel (hydroxypropylcellulose) (HPC)
  T/C: 109 % of control
endpoint: mean survival time, dose: 4.0 mg/kg/injection, schedule: Q01DX009 (ip), vehicle: saline
  T/C: 104 % of control
endpoint: mean survival time, dose: 4.0 mg/kg/injection, schedule: Q04DX002 (ip), vehicle: saline with Tween-80
  T/C: 103 % of control and 107 % of control
endpoint: mean survival time, dose: 5.0 mg/kg/injection, schedule: Q01DX Z (ip), vehicle: Klucel (hydroxypropylcellulose) (HPC)
  T/C: 205 % of control
endpoint: mean survival time, dose: 6.0 mg/kg/injection, schedule: Q01DX001 (ip), vehicle: other
  T/C: 154 % of control
endpoint: mean survival time, dose: 6.2 mg/kg/injection, schedule: Q07DX003 (ip), vehicle: Klucel (hydroxypropylcellulose) (HPC)
  T/C: 100 % of control
endpoint: mean survival time, dose: 6.7 mg/kg/injection, schedule: Q04DX004 (ip), vehicle: saline with Tween-80
  T/C: 206 % of control
endpoint: mean survival time, dose: 8.0 mg/kg/injection, schedule: Q01DX001 (ip), vehicle: other
  T/C: 165 % of control
endpoint: mean survival time, dose: 8.0 mg/kg/injection, schedule: Q01DX009 (ip), vehicle: saline
  T/C: 117 % of control
endpoint: mean survival time, dose: 10.0 mg/kg/injection, schedule: Q01DX001 (ip), vehicle: Klucel (hydroxypropylcellulose) (HPC)
  T/C: 445 % of control
endpoint: mean survival time, dose: 10.0 mg/kg/injection, schedule: Q01DX001 (ip), vehicle: clinical formulation
  T/C: 280 % of control
endpoint: mean survival time, dose: 10.0 mg/kg/injection, schedule: Q01DX001 (ip), vehicle: saline
  T/C: 328 % of control
endpoint: mean survival time, dose: 10.0 mg/kg/injection, schedule: Q01DX001 (iv), vehicle: clinical formulation
  T/C: 186 % of control and 205 % of control and 245 % of control
endpoint: mean survival time, dose: 10.0 mg/kg/injection, schedule: Q01DX Z (ip), vehicle: Klucel (hydroxypropylcellulose) (HPC)
  T/C: 240 % of control and 282 % of control
endpoint: mean survival time, dose: 10.0 mg/kg/injection, schedule: Q04DX004 (ip), vehicle: saline with Tween-80
  T/C: 273 % of control
endpoint: mean survival time, dose: 10.7 mg/kg/injection, schedule: Q01DX001 (ip), vehicle: saline with Tween-80
  T/C: 181 % of control
endpoint: mean survival time, dose: 12.0 mg/kg/injection, schedule: Q01DX001 (ip), vehicle: other
  T/C: 213 % of control
endpoint: mean survival time, dose: 12.5 mg/kg/injection, schedule: Q01DX001 (ip), vehicle: other
  T/C: 241 % of control
endpoint: mean survival time, dose: 12.5 mg/kg/injection, schedule: Q01DX001 (ip), vehicle: saline
  T/C: 172 % of control
endpoint: mean survival time, dose: 12.5 mg/kg/injection, schedule: Q07DX003 (ip), vehicle: Klucel (hydroxypropylcellulose) (HPC)
  T/C: 294 % of control
endpoint: mean survival time, dose: 13.0 mg/kg/injection, schedule: Q01DX001 (ip), vehicle: other
  T/C: 196 % of control
endpoint: mean survival time, dose: 15.0 mg/kg/injection, schedule: Q01DX001 (ip), vehicle: clinical formulation
  T/C: 218 % of control
endpoint: mean survival time, dose: 15.0 mg/kg/injection, schedule: Q01DX001 (ip), vehicle: saline
  T/C: 238 % of control
endpoint: mean survival time, dose: 15.0 mg/kg/injection, schedule: Q01DX001 (iv), vehicle: clinical formulation
  T/C: 326 % of control
endpoint: mean survival time, dose: 15.0 mg/kg/injection, schedule: Q01DX001 (iv), vehicle: saline
  T/C: 154 % of control
endpoint: mean survival time, dose: 15.0 mg/kg/injection, schedule: Q04DX004 (ip), vehicle: saline with Tween-80
  T/C: 319 % of control
endpoint: mean survival time, dose: 16.0 mg/kg/injection, schedule: Q01DX001 (ip), vehicle: other
  T/C: 321 % of control
endpoint: mean survival time, dose: 18.0 mg/kg/injection, schedule: Q01DX001 (ip), vehicle: other
  T/C: 265 % of control
endpoint: mean survival time, dose: 20.0 mg/kg/injection, schedule: Q01DX001 (ip), vehicle: Klucel (hydroxypropylcellulose) (HPC)
  T/C: 442 % of control
endpoint: mean survival time, dose: 20.0 mg/kg/injection, schedule: Q01DX001 (iv), vehicle: Klucel (hydroxypropylcellulose) (HPC)
  T/C: 332 % of control
endpoint: mean survival time, dose: 20.0 mg/kg/injection, schedule: Q01DX001 (iv), vehicle: clinical formulation
  T/C: 371 % of control
endpoint: mean survival time, dose: 20.0 mg/kg/injection, schedule: Q01DX Z (ip), vehicle: Klucel (hydroxypropylcellulose) (HPC)
  T/C: 166 % of control
endpoint: mean survival time, dose: 20.0 mg/kg/injection, schedule: Q04DX004 (ip), vehicle: saline with Tween-80
  T/C: 290 % of control
endpoint: mean survival time, dose: 22.0 mg/kg/injection, schedule: Q01DX001 (ip), vehicle: clinical formulation
  T/C: 255 % of control
endpoint: mean survival time, dose: 22.0 mg/kg/injection, schedule: Q01DX001 (ip), vehicle: saline
  T/C: 326 % of control
endpoint: mean survival time, dose: 22.0 mg/kg/injection, schedule: Q01DX001 (iv), vehicle: clinical formulation
  T/C: 250 % of control
endpoint: mean survival time, dose: 22.0 mg/kg/injection, schedule: Q01DX001 (iv), vehicle: saline
  T/C: 202 % of control
endpoint: mean survival time, dose: 24.0 mg/kg/injection, schedule: Q01DX001 (ip), vehicle: other
  T/C: 252 % of control
endpoint: mean survival time, dose: 24.0 mg/kg/injection, schedule: Q01DX001 (ip), vehicle: saline with Tween-80
  T/C: 436 % of control
endpoint: mean survival time, dose: 24.0 mg/kg/injection, schedule: Q01DX001 (oral), vehicle: other
  T/C: 364 % of control
endpoint: mean survival time, dose: 25.0 mg/kg/injection, schedule: Q01DX001 (ip), vehicle: other
  T/C: 300 % of control
endpoint: mean survival time, dose: 25.0 mg/kg/injection, schedule: Q01DX001 (ip), vehicle: saline
  T/C: 382 % of control
endpoint: mean survival time, dose: 25.0 mg/kg/injection, schedule: Q07DX003 (ip), vehicle: Klucel (hydroxypropylcellulose) (HPC)
  T/C: 214 % of control
endpoint: mean survival time, dose: 26.0 mg/kg/injection, schedule: Q01DX009 (ip), vehicle: saline with Tween-80
  T/C: 97 % of control and 101 % of control
endpoint: mean survival time, dose: 27.0 mg/kg/injection, schedule: Q01DX001 (ip), vehicle: other
  T/C: 283 % of control
endpoint: mean survival time, dose: 30.0 mg/kg/injection, schedule: Q01DX001 (ip), vehicle: other
  T/C: 321 % of control
endpoint: mean survival time, dose: 31.0 mg/kg/injection, schedule: Q01DX001 (ip), vehicle: other
  T/C: 357 % of control
endpoint: mean survival time, dose: 33.0 mg/kg/injection, schedule: Q01DX001 (ip), vehicle: saline
  T/C: 326 % of control
endpoint: mean survival time, dose: 33.0 mg/kg/injection, schedule: Q01DX001 (iv), vehicle: saline
  T/C: 297 % of control
endpoint: mean survival time, dose: 40.0 mg/kg/injection, schedule: Q01DX001 (ip), vehicle: Klucel (hydroxypropylcellulose) (HPC)
  T/C: 180 % of control
endpoint: mean survival time, dose: 40.0 mg/kg/injection, schedule: Q01DX001 (ip), vehicle: clinical formulation
  T/C: 404 % of control
endpoint: mean survival time, dose: 40.0 mg/kg/injection, schedule: Q01DX001 (iv), vehicle: Klucel (hydroxypropylcellulose) (HPC)
  T/C: 395 % of control
endpoint: mean survival time, dose: 40.0 mg/kg/injection, schedule: Q01DX001 (iv), vehicle: clinical formulation
  T/C: 188 % of control and 251 % of control
endpoint: mean survival time, dose: 40.0 mg/kg/injection, schedule: Q04DX004 (ip), vehicle: saline with Tween-80
  T/C: 123 % of control
endpoint: mean survival time, dose: 45.0 mg/kg/injection, schedule: Q01DX001 (ip), vehicle: other
  T/C: 304 % of control
endpoint: mean survival time, dose: 50.0 mg/kg/injection, schedule: Q01DX001 (ip), vehicle: other
  T/C: 226 % of control
endpoint: mean survival time, dose: 50.0 mg/kg/injection, schedule: Q01DX001 (ip), vehicle: saline
  T/C: 326 % of control and 360 % of control
endpoint: mean survival time, dose: 50.0 mg/kg/injection, schedule: Q07DX003 (ip), vehicle: Klucel (hydroxypropylcellulose) (HPC)
  T/C: 121 % of control
endpoint: mean survival time, dose: 62.0 mg/kg/injection, schedule: Q01DX001 (ip), vehicle: other
  T/C: 109 % of control
endpoint: mean survival time, dose: 64.0 mg/kg/injection, schedule: Q04DX002 (ip), vehicle: saline with Tween-80
  T/C: 294 % of control and 313 % of control
endpoint: mean survival time, dose: 67.0 mg/kg/injection, schedule: Q01DX001 (ip), vehicle: other
  T/C: 230 % of control
endpoint: mean survival time, dose: 72.0 mg/kg/injection, schedule: Q01DX001 (ip), vehicle: other
  T/C: 113 % of control
endpoint: mean survival time, dose: 75.0 mg/kg/injection, schedule: Q01DX001 (ip), vehicle: saline
  T/C: 219 % of control and 296 % of control
endpoint: mean survival time, dose: 91.0 mg/kg/injection, schedule: Q01DX001 (oral), vehicle: other
  T/C: 280 % of control and 306 % of control and 388 % of control
endpoint: mean survival time, dose: 400.0 mg/kg/injection, schedule: Q01DX001 (ip), vehicle: saline with Tween-80
  T/C: 100 % of control
endpoint: median survival time, dose: 1.8 mg/kg/injection, schedule: Q01DX009 (ip), vehicle: saline
  T/C: 318 % of control
endpoint: median survival time, dose: 7.5 mg/kg/injection, schedule: Q01DX009 (ip), vehicle: saline
  T/C: 211 % of control
endpoint: median survival time, dose: 12.5 mg/kg/injection, schedule: Q01DX001 (ip), vehicle: saline with Tween-80
  T/C: 118 % of control and 121 % of control
endpoint: median survival time, dose: 15.0 mg/kg/injection, schedule: Q01DX009 (ip), vehicle: saline
  T/C: 96 % of control
endpoint: median survival time, dose: 100.0 mg/kg/injection, schedule: Q01DX001 (ip), vehicle: saline with Tween-80
  T/C: 106 % of control and 109 % of control
